Data: patent US4161598A, “1-Oxygenated-2,6-methano-3-benzazocines” (Sterling Drug Inc., priority 1977, dated 1979)
Counter-ions that a name gives are not always drawn. Like-named read-outs stand apart in the source and are kept apart here.

Legend:
[1] = Ziering reference; all tests other than writhing; cited from earlier work
[2] = test system: thermal stimulus applied to the tail; experiment: Tail-flick Agonist Test; type: in vivo, Rats; conditions: for ED50: Rattus norvegicus, sc, 0.5 h; for activity as agonist: tail-flick test, result in words
Method: Rats normally respond to a thermal stimulus applied to the tail by flicking their tails out from under the heat source. The intensity of the stimulus utilized is one which produces control response-times (CRT) of 2-4 seconds. Experimental response-times (ERT) are determined 30 minutes after subcutaneous injections and 60 minutes after oral medications. […] Therefore, the maximum possible increase (MPI) in response-time for any given animal is 20 minus the CRT. The average percent effect, or percent of the maximum possible increase (%MPI) obtained after any given test compound treatment is calculated by the formula [formula] […] ED50 or ED80 values of active compounds are obtained by the Miller and Tainter [Proc. Soc. Exptl.

[3] = test system: acetylcholine; experiment: Anti-acetylcholine Writhing Test; type: in vivo, mice; conditions: for ED50: Mus musculus, 20 min
Method: This response has also been called writhing. Animals are pretreated with test compounds (20 minutes for both subcutaneous and oral routes) and observed for two minutes immediately following the administration of acetylcholine. Mice not responding during the two-minute observation period are scored protected while those responding one or more times are scored not protected. Test compounds are screened at doses of 75 and 25 mg./kg. subcutaneously or 150 and 50 mg./kg. orally. […] ED50 values for active compounds are estimated by probit analysis of quantal scores for 4 or more dosage levels using 15 animals per dose. Vehicle-pretreated control animals are tested concurrently with each run of 15 experimental animals.

[4] = test system: narcotics; experiment: Tail-flick Antagonist Test, narcotic not specified
[5] = test system: phenyl-p-quinone (phenylquinone); experiment: Anti-phenylquinone Writhing Test; type: in vivo, mice; conditions: Mus musculus
Method: This test is used to confirm the anti-acetylcholine writhing test. The ability of compounds to prevent phenyl-p-quinone (phenylquinone)-induced writhing in mice is determined in this test. […] Animals are pretreated with test compounds (15 minutes for subcutaneous route, 30 minutes for oral route) and observed for three one-minute intervals during the 5-12 minutes following administration. Mice responsing fewer than three times during the three one-minute observation periods are scored protected while those responding three or more times are scored not protected. Test compounds are screened using 10-14 animals per treatment, usually at doses of 75-100 mg./kg. subcutaneously or 150-200 mg./kg. orally. […] ED50 values for active compounds are estimated by probit analysis of quantal scores for 3-5 dosage levels using 14-30 animals per dose. Vehicle-pretreated control animals are tested daily.

[6] = test system: ethylenediaminetetraacetic acid (EDTA); experiment: EDTA Antinociceptive Test; type: in vivo, guinea pig; conditions: Cavia porcellus, sc, 0.5 h; subcutaneous; reduces response score to 6 or less
Method: This is also a secondary evaluation of analgesic activity. The test animal is the guinea pig. A threshold intradermal dose of ethylenediaminetetraacetic acid (EDTA) which can reproducibly elicit a cumulative response score of 12-18 discrete episodes of jumping, rearing, running, vocalization and biting or scratching at the site of injection within 40 seconds after challenge is determined for each animal. Thirty minutes after the administration of saline or test compound to 6-7 animals per dose, each animal is again challenged with its own threshold dose of EDTA. An effective drug dose is considered to be one which reduces the response score to 6 or less.

[7] = test system: bradykinin; experiment: Anti-bradykinin Test; type: in vivo, Rats; conditions: Rattus norvegicus, 2 h
Method: This is a secondary evaluation of analgesic activity. […] The threshold dose of bradykinin required for production of the response is determined for each animal, and is readministered at fixed intervals during a two-hour period following the subcutaneous or oral administration of test compounds. In the control response marked rotation of the head and flexion of the forepaw are each scored +2, for a total response score (TRS) of +4. For post-medication scoring any decrease in head rotation or paw flexion from control is each scored +1, rather than +2, while no movement of either the head or paw is each scored 0. Therefore, the TRS following any bradykinin challenge can vary from 0 to 4. Animals whose TRSs are 0-0, 0-+1 or +1-0 after any two consecutive bradykinin challenges during the two-hour post-medication period are scored protected. […] ED50 values of active compounds are estimated by probit analysis of quantal scores from 4 or more dosage levels using 5 animals per dose. In addition the average TRSs obtained at each test interval with each treatment are plotted to permit examination of time-effect relationships and to provide a rough expression of drug effect using graded data. A vehicle-pretreated control animal is tested daily. Synthetic bradykinin from Sandoz Pharmaceuticals is diluted with saline to the proper concentrations for determination of threshold doses for producing the response. All bradykinin injections are made at a constant volume of 0.2 ml. per rat.

[8] = test system: analgesic activity; experiment: Analgesic activity, summary of the foregoing tests in experimental animals; type: in vivo; conditions: summary of the foregoing test results
Method: As stated above the compounds of Formula I are useful as analgesics and mostly also useful as narcotic antagonists as shown by tests in experimental animals. As presumptive tests of analgesia the anti-acetylcholine writhing, anti-phenylquinone writhing, anti-bradykinin and EDTA anti-nociceptive tests are carried out as follows: […]

[9] = test system: meperidine; experiment: Tail-flick Antagonist Test against meperidine; conditions: Rattus norvegicus
[10] = test system: morphine; experiment: Tail-flick Antagonist Test against morphine; conditions: Rattus norvegicus
[11] = test system: phenazocine; experiment: Tail-flick Antagonist Test against phenazocine; conditions: Rattus norvegicus
[12] = subcutaneously, unit inferred, read-out: agonist ED50
[13] = sc, subcutaneous, form tested not given, read-out: Subcutaneous ED50 (95% Confidence Limits)
[14] = tail-flick antagonist test, result in words
[15] = summary of the foregoing test results
[16] = po, 0.5 h, read-out: ED50 (95% Confidence Limits), Oral
[17] = sc, 0.25 h, read-out: ED50 (95% Confidence Limits), Subcutaneous
[18] = po, oral, read-out: ED50 (95% Confidence Limits), Oral
[19] = sc, subcutaneous, base, read-out: Subcutaneous ED50 (95% Confidence Limits)
[20] = sc, subcutaneous, free base or acid addition salt, read-out: ED50 (95% Confidence Limits), Subcutaneous
[21] = po, read-out: ED50 (95% Confidence Limits), Oral
[22] = sc, read-out: ED50 (95% Confidence Limits), Subcutaneous
[23] = sc, 10 min, read-out: Subcutaneous AD50 (95% Confidence Limits) Against Meperidine
[24] = subcutaneous, 120 Mg./Kg. of Base
[25] = sc, subcutaneous, methanesulfonate salt, read-out: Subcutaneous ED50 (95% Confidence Limits)
[26] = sc, 10 min, read-out: Subcutaneous AD50 (95% Confidence Limits) Against Phenazocine

Compound: COc1ccc2c(c1)[C@]1(C)CCN(C)[C@@H]([C@@H]1C)[C@]2(C)O (relative stereo) [Compound 14]
- activity in all other tests [1]: inactive

Compound: C[C@H]1[C@H]2C(=O)c3ccc(O)cc3[C@]1(C)CCN2CCc1ccccc1 (relative stereo) [Example 34, 1,2,3,4,5,6-hexahydro-1-oxo-3-(2-phenylethyl)-8-hydroxy-6(eq),11(ax)-dimethyl-2,6-methano-3-benzazocine]
- ED50 [2, 12]: 56 ± 9.1 mg/kg
- activity as agonist [2]: weakly active
- ED50 [3, 13]: 4.2 mg/kg
- narcotic antagonist activity [4, 14]: inactive

Compound: C[C@H]1[C@H]2C(=O)c3ccc(O)cc3[C@]1(C)CCN2CC1CCC1 (relative stereo) [Example 35B, 1,2,3,4,5,6-hexahydro-1-oxo-3-cyclobutylmethyl-8-hydroxy-6(eq),11(ax)-dimethyl-2,6-methano-3-benzazocine]
- ED50 [2, 12]: 200 ± 49 mg/kg
- activity as agonist [2]: weakly active
- ED50 [3, 13]: 3.9 mg/kg
- narcotic antagonist activity [4, 14]: inactive

Compound: CC[C@]12CCN(CC3CC3)[C@H](C(=O)c3ccc(O)cc31)[C@@H]2C (relative stereo) [Example 29, 1,2,3,4,5,6-hexahydro-1-oxo-3-cyclopropylmethyl-8-hydroxy-6(eq)-ethyl-11(ax)-methyl-2,6-methano-3-benzazocine]
- ED50 ([2]; read-out: Tail-flick Agonist Subcutaneous ED50): 9 ± 10 mg/kg
- ED50 ([2]; subcutaneously, read-out: agonist ED50): 9 ± 10 mg/kg
- narcotic activity [2, 15]: no narcotic activity
- activity as agonist [2]: active
- ED50 [5, 16]: 9.1 mg/kg
- ED50 [5, 17]: 0.03 mg/kg
- minimal effective dose [6]: 0.025 mg/kg
- ED50 [3, 18]: 7.6 mg/kg
- ED50 [3, 19]: 0.045 mg/kg
- ED50 [3, 20]: 0.074 mg/kg
- ED50 [7, 21]: 11 mg/kg
- ED50 [7, 22]: 0.053 mg/kg
- narcotic antagonist activity [4, 15]: weak narcotic antagonist activity
- narcotic antagonist activity [4, 14]: Inactive
- analgesic activity [8]: strong analgesic activity

Compound: C[C@H]1[C@H]2[C@H](O)c3ccc(O)cc3[C@]1(C)CCN2CC1CC1 (relative stereo) [Example 18, 1,2,3,4,5,6-hexahydro-1(eq),8-dihydroxy-3-cyclopropylmethyl-6(eq), 11(ax)-dimethyl-2,6-methano-3-benzazocine hydrochloride]
- ED50 [3, 13]: 10 mg/kg
- ED50 [9, 23]: 11 mg/kg

Compound: COc1ccc2c(c1)[C@]1(C)CCN(C)[C@@H]([C@@H]1C)[C@@]2(O)c1ccccc1 (relative stereo) [Compound 13]
- activity in all other tests [1]: inactive

Compound: C[C@H]1[C@H]2C(=O)c3ccc(O)cc3[C@]1(C)CCN2CC1CC1 (relative stereo) [Example 1, 1,2,3,4,5,6-hexahydro-1-oxo-3-cyclopropylmethyl-8-hydroxy-6(eq),11(ax)-dimethyl-2,6-methano-3-benzazocine]
- ED50 ([10]; po, 20 min, read-out: AD50 (95% Confidence Limits) Against Morphine, Oral): 91 mg/kg
- ED50 ([10]; sc, 10 min, read-out: AD50 (95% Confidence Limits) Against Morphine, Subcutaneous): 4.9 mg/kg
- ED50 ([10]; sc, 10 min, read-out: Subcutaneous AD50 (95% Confidence Limits) Against Morphine): 4 mg/kg
- Percent Inhibition of Response, Oral ([2]; oral, 200 Mg./Kg. of Base): 11.2%
- dead ([2]; oral, 200 Mg./Kg. of Base): 1/6
- righting reflex ([2]; oral, 200 Mg./Kg. of Base): partial loss
- salivation ([2]; oral, 200 Mg./Kg. of Base): slight
- Percent Inhibition of Response, Subcutaneous [2, 24]: 2.3%
- activity (observed side effect) [2, 24]: decreased
- observed side effect [2, 24]: atoxia
- ED50 [5, 16]: 15.2 mg/kg
- ED50 [5, 17]: 0.16 mg/kg
- minimal effective dose [6]: 0.03 mg/kg
- ED50 [3, 18]: 12 mg/kg
- ED50 [3, 19]: 0.12 mg/kg
- ED50 [3, 20]: 0.16 mg/kg
- ED50 ([3]; sc, subcutaneous, hydrochloride salt, read-out: Subcutaneous ED50 (95% Confidence Limits)): 0.16 mg/kg
- ED50 [3, 25]: 0.16 mg/kg
- ED50 ([11]; po, 20 min, read-out: AD50 (95% Confidence Limits) Against Phenazocine, Oral): 63 mg/kg
- ED50 ([11]; sc, 10 min, read-out: AD50 (95% Confidence Limits) Against Phenazocine, Subcutaneous): 5 mg/kg
- ED50 [11, 26]: 4.3 mg/kg
- ED50 ([9]; po, 20 min, read-out: AD50 (95% Confidence Limits) Against Meperidine, Oral): 78 mg/kg
- ED50 ([9]; sc, 10 min, read-out: AD50 (95% Confidence Limits) Against Meperidine, Subcutaneous): 7.2 mg/kg
- ED50 [9, 23]: 2 mg/kg
- ED50 [7, 21]: 10 mg/kg
- ED50 [7, 22]: 0.069 mg/kg
- narcotic antagonist activity [4, 15]: weak narcotic antagonist activity
- analgesic activity [8]: strong analgesic activity

Compound: C=CCN1CC[C@@]2(C)c3cc(O)ccc3[C@@H](O)[C@@H]1[C@@H]2C (relative stereo) [Example 17, 1,2,3,4,5,6-hexahydro-1(eq),8-dihydroxy-3-allyl-6(eq),11(ax)-dimethyl-2,6-methano-3-benzazocine]
- ED50 [3, 13]: 4.8 mg/kg
- ED50 [9, 23]: 0.98 mg/kg

Compound: C[C@H]1[C@H]2C(=O)c3ccc(O)cc3[C@]1(C)CCN2CC1CC1 [Example 26C, 2S,6R,11R-1,2,3,4,5,6-hexahydro-1-oxo-3-cyclopropylmethyl-8-hydroxy-6(eq),11(ax)-dimethyl-2,6-methano-3-benzazocine]
- ED50 [3, 25]: 0.11 mg/kg
- ED50 [11, 26]: 2.4 mg/kg

Compound: CCC(=O)Oc1ccc2c(c1)[C@]1(C)CCN(CC3CC3)[C@H](C2=O)[C@@H]1C (relative stereo) [Example 3, 1,2,3,4,5,6-hexahydro-1-oxo-3-cyclopropylmethyl-8-propionyloxy-6(eq),11(ax)-dimethyl-2,6-methano-3-benzazocine hydrochloride]
- % effect ([3]; subcutaneous, 0.1 mg./kg.): 20%
- % effect ([3]; subcutaneous, 1 mg./kg.): 27%
- % effect ([3]; subcutaneous, 10 mg./kg.): 7%
- % effect ([3]; subcutaneous, 100 mg./kg.): 47%
- ED50 [11, 26]: 6 mg/kg

Compound: CC[C@H]1[C@H]2C(=O)c3ccc(O)cc3[C@]1(C)CCN2CC1CC1 (relative stereo) [Example 33E, 1,2,3,4,5,6-hexahydro-1-oxo-3-cyclopropylmethyl-8-hydroxy-6(eq)-methyl-11-(ax)-ethyl-2,6-methano-3-benzazocine]
- ED50 [3, 13]: 0.47 mg/kg
- ED50 [11, 26]: 0.17 mg/kg
